Test results published in PubChem BioAssay AID179 (DTP/NCI, 2004).
Where “and” joins values, the source holds several entries; their conditions need not be identical. Equal entries are not always repeated. Calls of active or inactive are those of the source.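 How the source made its calls: active means compounds giving half or more protection of infected cells from virus-caused growth loss, again on retest; inactive means the rest.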 Where a SMILES comes first, the peptide text is derived from it. Bridges are numbered along the chain shown (N, C = ends).

System: CEM cells HIV-1 protection, formazan growth assay
Assay: NCI AIDS Antiviral Assay
Details: for IC50: measured here: growth of uninfected CEM cells
Procedure, shortened: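 Five concentrations of each compound were applied to infected and uninfected human CEM cells. Protection from HIV-1 was judged from growth measured with a soluble formazan assay.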

Row | Structure (SMILES) | EC50 [µM] | IC50 | outcome
1 | N#CCC(=O)N1CCCCCCC1 | > 1380 | > 1380 µM | –
2 | O=c1c(-c2ccccc2)c(S)sc(S)c1-c1ccccc1 | > 200 | > 200 µM | –
3 | COc1ccc(C(c2ccccc2)N2C(=O)CCC2C(=O)O)cc1OC (centres undefined) | > 200 | > 200 µM | –
4 | COc1ccc(I)c(CCC(CO)C2=CCC3(CC2)OCCO3)c1 (centres undefined) | > 16.2 | > 16.2 µM | –
5 | CN1C2C=CC(=O)C1C(C#N)C2 (centres undefined) | > 200 | 34.7 µM and 115 µM | –
6 | O=C(CCCNc1nc(-c2ccccc2)cs1)c1cccs1 | > 50.1 | > 50.1 µM | –
7 | COC1OC(COC(=O)c2ccccc2)CC1F (centres undefined) | > 195 | 21.4 µM | –
8 | COc1cc2nc3n(c2cc1OC)C(O)c1c(Cl)nc(SC)nc1S3 (centres undefined) | > 200 | 7.76 µM | –
9 | NC(CSS(=O)(=O)O)=NC1CC2CCC1C2 (centres undefined) | > 200 | 120 µM | –
10 | NS(=O)(=O)c1ccc(CNC(=O)c2ccccc2SC(=O)CCC[n+]2ccccc2)cc1 | 4.79 | 13.8 µM | –
11 | CC1=C(C(=O)NNC(=O)C(N)=O)CC(C(=O)NNC(=O)C(N)=O)=C(C)N1 | > 200 | > 200 µM | –
12 | O=C1C2C(C(=O)N1c1ccccc1)C1(c3ccccc3)OC2(c2ccccc2)c2ccccc21 (centres undefined) | – | – | inactive
13 | O=C1CC2Sc3ccccc3N=C2N1c1ccc(Cl)cc1Cl (centres undefined) | > 269 | 47.9 µM | –
14 | Cc1cc(NS(=O)(=O)c2ccc(N=c3c4ccccc4n(-c4ccccc4)c4ccccc34)cc2)no1 | – | – | inactive
15 | COC1=C(CC(C)=O)C(=O)c2c(O)c(CO)cc(O)c2C1=O | – | – | inactive
16 | COC1/C=C/OC2(C)Oc3c(C)c(OC(C)=O)c4c(c3C2=O)C(=O)C=C(NC(=O)/C(C)=C\C=C\C(C)C(O)C(C)C(O)C(C)C(OC(C)=O)C1C)C4=O (centres undefined) | > 200 | 5.89 µM | –
17 | COC(=O)/C(=N/Nc1cccc(Cl)c1)C(C(=O)C(=O)Nc1cccc(Cl)c1C)c1nc2ccccc2nc1C (centres undefined) | > 12.9 | > 12.9 µM | –
18 | Cc1ccc2ccccc2c1NC1=NCCO1 | > 200 | 107 µM | –
19 | CN(Cc1ccccc1)C(=NC#N)N(Cc1ccccc1)Cc1ccccc1 | > 19.5 | > 19.5 µM | –
20 | C[C@@H]1C=C[C@@H]2COC(=O)C2=C[C@@H]1c1ccccc1 | – | – | inactive
21 | CCOC(=O)c1cc(Br)c(-c2cc(C)no2)[nH]1 | > 200 | 1.48 µM | –
22 | Cc1ccc(S(=O)(=O)NC2CCCCO2)cc1 (centres undefined) | > 708 | > 708 µM | –

Row | Structure (SMILES) | EC50 [µM] | IC50 | outcome
23 | CCOC(=O)c1ccc2c(=O)n3c(C(=O)OCC)ccc3c(=O)n12 | 162 | > 200 µM | –
24 | N#CC12CC(C=O)=C(N)C1(C#N)CC(C=O)=C2N (centres undefined) | > 200 | 14.8 µM | –
25 | Cc1cc(NS(=O)(=O)c2ccc(NC(=O)c3ccc4nc5ccccc5c(Nc5ccc(S(=O)(=O)N=C(N)N)cc5)c4c3)cc2)no1 | > 75.9 | 24.5 µM | –
26 | CC(C)CCCC(C)C1CCC2[C@@H]3CCC4C[C@@H](CC=C(c5cc(Cl)c(O)c(C(=O)O)c5)c5cc(Cl)c(O)c(C(=O)O)c5)CC[C@]4(C)C3CC[C@]12C (some centres undefined) | 21.4 | 316 µM | –
27 | CC1=C(c2cc(C(=O)Nc3cccc(C(F)(F)F)c3)ncn2)Sc2ccccc2N1 | > 83.2 | > 83.2 µM | –
28 | O=S(=O)(O)c1ccc(NNc2ccc(S(=O)(=O)O)cc2)cc1 | – | – | inactive
29 | CCOC(C[C@H](O)[C@H]1COC(=S)S1)OCC | 135 | > 200 µM | –
30 | O=Nc1ccc(N=O)cc1 | > 200 | > 200 µM | –
31 | CC(=O)Oc1ccc2c3c4nc5ccccc5nc4cc(OC(C)=O)c3n(C)c2c1 | > 5.01 | > 5.01 µM | –
32 | Cc1ccc2scc3c4ccccc4nc-3c2c1 | > 200 | 0.479 µM | –
33 | CN1CN(c2ccccc2)C2(CCN(CCCCCCF)CC2)C1=O | > 200 | 107 µM | –
34 | CCCCC(=O)N1SC(NC(=O)OC)=Nc2ccccc21 | > 309 | 6.76 µM | –
35 | O=c1[nH][nH]c(=O)c2c1nc(SCc1ccc(Br)cc1)n2Cc1ccccc1 | > 214 | > 214 µM | –
36 | S=c1sc2c(s1)SCCCCSCCCCSc1sc(=S)sc1SCCCCSCCCCS2 | > 200 | > 200 µM | –
37 | COc1cccc(C=C2C(=O)OC(C)(C)OC2=O)c1 | – | – | inactive
38 | O=C(O)/C=C/c1ccccc1[N+](=O)[O-] | > 257 | > 257 µM | –
39 | N#Cc1ccc(N(O)C(=O)c2ccccc2)cc1 | > 200 | 46.8 µM | –
40 | COc1ccc2[nH]c3c(C)c4ccnc(NCCCN(C)CCCNc5ccc6ncn7c8ccccc8c(=O)c5c67)c4c(C)c3c2c1 | > 0.0251 | 0.00794 µM | –
41 | CN(CCCNC(=O)c1cc(-c2ccccc2)nc2ccccc12)CCCNC(=O)c1cc(-c2ccccc2)nc2ccccc12 | > 20 | 3.39 µM | –
42 | Cc1cc(N)ccc1N=Nc1ccc(S(=O)(=O)CCOS(=O)(=O)O)cc1 | > 2 | 0.912 µM | –
43 | Cc1cccc2c(=O)c3cccc(CC(=O)O)c3oc12 | > 200 | > 200 µM | –
44 | Cn1c(N)c(Cc2ccc(Cl)cc2)c(=O)[nH]c1=O | > 200 | > 200 µM | –

Row | Structure (SMILES) | EC50 [µM] | IC50 | outcome
45 | O=C(O)c1cc([N+](=O)[O-])c2c(c1)P(=O)(O)c1cc(C(=O)O)cc([N+](=O)[O-])c1O2 | > 200 | > 200 µM | –
46 | Cc1c(CSCC(=O)O)c(O)c2c(=O)c3c(O)c(CSCC(=O)O)c(O)c4c5c(O)c(CSCC(=O)O)c(O)c6c(=O)c7c(O)c(CSCC(=O)O)c(C)c8c1c2c(c34)c(c78)c65 | > 26.9 | 1.12 µM | –
47 | CC1C[N+]2(CNC(=O)C3=C(O)C4(O)C(=O)C5=C(O)c6c(O)cccc6C(C)(O)C5CC4C(N(C)C)C3=O)CC(C)O[B-]2(c2ccccc2)O1 (centres undefined) | > 138 | 105 µM | –
48 | COc1ccc(C(=O)C(C(=O)C(=O)Nc2ccc(Cl)c(Cl)c2)c2ccc(OC)cc2)cc1 (centres undefined) | > 75.9 | > 75.9 µM | –
49 | COc1ccc(C(c2ccccc2)(c2ccc(OC)cc2)N2C(=O)NC3C(CCCCC(=O)NCCCCCCOP(OCCC#N)N(C(C)C)C(C)C)SCC32)cc1 (centres undefined) | > 4.47 | > 4.47 µM | –
50 | CN1C(=O)C(/C=N/NC(=O)c2cccnc2)C(N)N(C)C1=O (centres undefined) | > 200 | > 200 µM | –
51 | O=C(/C=C(\O)c1ccc(Cl)cc1)C(=O)NN=C(c1ccccc1)c1ccccc1 | > 200 | 16.6 µM | –
52 | CCOC(=O)Cn1sc2ncc([N+](=O)[O-])cc2c1=O | > 13.5 | 8.91 µM | –
53 | Cc1cc(Br)c2nsnc2c1[N+](=O)[O-] | > 26.3 | 2.57 µM | –
54 | CN(C)P(=O)(c1ccccc1)c1ccccc1 | > 200 | > 200 µM | –
55 | CC(C)(C)NC(=S)N/N=C/c1ccccn1 | > 0.2 | 0.0288 µM | –
56 | CCOC(=O)C1N(S(=O)(=O)c2ccc(C)cc2)CCC12c1ccccc1NC2c1ccc(OC)c(OC)c1 (centres undefined) | – | – | inactive
57 | Cc1ccc(S(=O)(=O)C2=Cc3ccccc3C2(O)c2ccccc2)cc1 (centres undefined) | > 200 | 21.4 µM | –
58 | COc1cc(CC2C(O)C3CCN2CC3)cc(OC)c1OC (centres undefined) | – | – | inactive
59 | COC(=O)C(=O)Cc1nc2ccccc2s1 | – | – | inactive
60 | c1ccc(-c2cnnc3c4ccccc4nn23)cc1 | > 200 | > 200 µM | –
61 | Nc1nc(=Nc2ccccc2)ss1 | – | – | inactive
62 | COC12c3ccccc3-c3ccccc3C1[C@@H](C(=O)O)[C@H]2C(=O)O (some centres undefined) | > 776 | > 776 µM | –
63 | CN(C)CCNc1ccc2ncnc3c2c1C(=O)c1ccccc1-3 | > 1 | 0.219 µM | –
64 | C[N+]12CC[N+](C)(CC1)CC2 | > 832 | > 832 µM | –
65 | O=C(O)c1ccccc1-c1c2cc([N+](=O)[O-])c(=O)c(Br)c-2oc2c(Br)c(O)c([N+](=O)[O-])cc12 | > 316 | 8.13 µM | –
66 | CC(C)c1ccc(C(c2c(O)c3ccccc3oc2=O)c2c(O)c3ccccc3oc2=O)cc1 | > 200 | 30.2 µM | –

Row | Structure (SMILES) | EC50 [µM] | IC50 | outcome
67 | CCCCCCOc1ccc(C(=O)N(C)O)cc1 | > 200 | 11.5 µM | –
68 | Oc1cc(CN2CCOCCOCCOCCOCC2)c(O)cc1CN1CCOCCOCCOCCOCC1 | > 437 | 13.2 µM | –
69 | CN(C)C(=O)OC(Cn1cncn1)c1ccc(Cl)cc1Cl (centres undefined) | > 537 | 275 µM | –
70 | O=C(NP(=O)(N1CC1)N1CC1)OCc1ccccc1 | > 200 | > 200 µM | –
71 | COc1cccc2c1C(c1ccc3ccccc3c1)OC2=O (centres undefined) | > 46.8 | 25.1 µM | –
72 | COc1cc(CC(C)=O)cc(OC)c1 | > 200 | 95.5 µM | –
73 | CN(C)CCNC(=O)c1cccc2c(NCCN(C)C)c3ccccc3nc12 | > 20 | 2.09 µM | –
74 | O=C1OC(Sc2ccccc2)(Sc2ccccc2)c2cccc3cccc1c23 | – | – | inactive
75 | Cc1ccc(Oc2ccccc2N)cc1 | – | – | inactive
76 | Nc1cc(C(=O)Nc2ccc(C3=NCCN3)cc2)cc(C(=O)Nc2ccc(C3=NCCN3)cc2)c1 | 16.2 | 145 µM | –
77 | COc1cccc(/C=N/[N-]C(=O)c2ccncc2)c1[O-].[Mn+2].[OH3+] | > 39.8 | 6.61 µM | –
78 | CCC(C)C1NC(=O)C2CCCN2C(=O)C(Cc2ccc(O)cc2)NC(=O)C(CC(N)=O)NC(=O)C(CCC(N)=O)NC(=O)C(CO)NC(=O)C(C(C)C)NC(=O)C(N)CSSCC(C(=O)O)NC(=O)C(CCC(N)=O)NC(=O)C(C(C)C)NC1=O (centres undefined) (H-CVSQNYPIVQC-OH; disulfide 1-11; configuration not given here) | > 50.1 | > 50.1 µM | –
79 | OC1C2C=CCC1CCC2 (centres undefined) | – | – | inactive
80 | CCOC(=O)c1c(NS(=O)(=O)c2ccc(Br)cc2)sc2c1CCCC2 | – | – | inactive
81 | O=c1c2ccccc2[se]n1-c1ccccc1 | 1.62 | 17.8 µM | –
82 | [Pd+2].[S-]c1ncccn1.[S-]c1ncccn1 | > 200 | 0.107 µM | –
83 | COc1cc(=O)cc(Cl)c(Cl)c1Cl | – | – | inactive
84 | CC(=O)NC(CCC(=O)c1ccc(Oc2ccccc2)cc1)(C(=O)O)C(=O)O | > 200 | > 200 µM | –
85 | O=C1NC2NC3NC(=O)NC3NC2N1 (centres undefined) | > 200 | > 200 µM | –
86 | CCCCNC(=O)Cn1c2ccc(Br)cc2c2nc3ccccc3nc21 | > 100 | > 100 µM | –
87 | CCN(CC)C1Oc2cc3c(cc2C(c2ccc(OC)cc2)C1C)OCO3 (centres undefined) | > 200 | 24 µM | –
